In ChEMBL document CHEMBL1201862, “PubChem BioAssay data set” (2004):
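These data come from cells grown in 96-well plates and exposed to compound for 48 hours at five concentrations. GI50 = concentration required for 50% inhibition of growth.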 The source made the active and inactive calls. Cut-off read from the data, not from the text of the source: active = GI50 up to about 1.1 µM and inactive = higher.

Assays:
Assay in all cases: NCI anticancer screen, dose series, 48 h
[1] = tested on: NCI-H226
[2] = tested on: K562
[3] = tested on: A498
[4] = tested on: IGROV-1
[5] = tested on: KM12
[6] = tested on: SF-295
[7] = tested on: CAKI-1
[8] = tested on: KM-20L2
[9] = tested on: HOP-62
[10] = tested on: TK-10
[11] = tested on: SN12C
[12] = tested on: XF498
[13] = tested on: LXFL 529
[14] = tested on: HL-60
[15] = tested on: HOP-92
[16] = tested on: SNB-78
[17] = tested on: ACHN
[18] = tested on: RXF 631
[19] = tested on: HT-29
[20] = tested on: MOLT-4
[21] = tested on: OVCAR-4
[22] = tested on: DMS-273
[23] = tested on: SF-539
[24] = tested on: SK-OV-3
[25] = tested on: SF-268
[26] = tested on: OVCAR-5
[27] = tested on: UACC-62
[28] = tested on: CCRF-CEM
[29] = tested on: RXF 393
[30] = tested on: 786-0
[31] = tested on: UO-31
[32] = tested on: UACC-257
[33] = tested on: OVCAR-8
[34] = tested on: Malme-3M
[35] = tested on: SNB-19
[36] = tested on: HCC 2998
[37] = tested on: BT-549
[38] = tested on: DMS-114
[39] = tested on: SW-620
[40] = tested on: NCI-H23
[41] = tested on: M14
[42] = tested on: HCT-15
[43] = tested on: HCT-116
[44] = tested on: T47D
[45] = tested on: MCF7
[46] = tested on: NCI-H522
[47] = tested on: COLO 205
[48] = tested on: DU-145
[49] = tested on: NCI/ADR-RES
[50] = tested on: OVCAR-3
[51] = tested on: SK-MEL-28
[52] = tested on: MDA-N
[53] = tested on: SR
[54] = tested on: A549
[55] = tested on: MDA-MB-435
[56] = tested on: DLD-1
[57] = tested on: Hs-578T
[58] = tested on: PC-3
[59] = tested on: U-251
[60] = tested on: RPMI-8226
[61] = tested on: SK-MEL-5
[62] = tested on: LOX IMVI
[63] = tested on: SNB-75
[64] = tested on: MDA-MB-231
[65] = tested on: M19-MEL
[66] = tested on: EKVX
[67] = tested on: SK-MEL-2
[68] = tested on: NCI-H460

## FC(F)(F)c1cc(C2SCc3nc4ccccc4n32)cc(C(F)(F)F)c1 (stereo not given)
[1]
  GI50: 6.41 µM (inactive)
[2]
  GI50: 2.97 µM (inactive)
[3]
  GI50: > 100 µM (inactive)
[4]
  GI50: 8.13 µM (inactive)
[5]
  GI50: 4.68 µM (inactive)
[6]
  GI50: 5 µM (inactive)
[7]
  GI50: 4.24 µM (inactive)
[8]
  GI50: 3.37 µM (inactive)
[9]
  GI50: 5.5 µM (inactive)
[10]
  GI50: > 100 µM (inactive)
[11]
  GI50: 2.9 µM (inactive)
[12]
  GI50: 8.45 µM (inactive)
[13]
  GI50: > 100 µM (inactive)
[14]
  GI50: 3.87 µM (inactive)
[15]
  GI50: 20.4 µM (inactive)
[16]
  GI50: 36.7 µM (inactive)
[17]
  GI50: > 100 µM (inactive)
[18]
  GI50: 10.6 µM (inactive)
[19]
  GI50: 3.46 µM (inactive)
[20]
  GI50: 2.97 µM (inactive)
[21]
  GI50: > 100 µM (inactive)
[22]
  GI50: 3.65 µM (inactive)
[23]
  GI50: 24.6 µM (inactive)
[24]
  GI50: 20.5 µM (inactive)
[25]
  GI50: 44.9 µM (inactive)
[26]
  GI50: > 100 µM (inactive)
[27]
  GI50: 3.87 µM (inactive)
[28]
  GI50: 4.51 µM (inactive)
[29]
  GI50: 14.8 µM (inactive)
[30]
  GI50: 11.4 µM (inactive)
[31]
  GI50: > 100 µM (inactive)
[32]
  GI50: > 100 µM (inactive)
[33]
  GI50: 10.3 µM (inactive)
[34]
  GI50: 2.92 µM (inactive)
[35]
  GI50: 76 µM (inactive)

## Nc1nc2c(ncn2C2CCC(CO)O2)c(=O)n1C(=O)c1ccccc1 (stereo not given)
[36]
  GI50: > 100 µM (inactive)
[37]
  GI50: > 100 µM (inactive)
[1]
  GI50: > 100 µM (inactive)
[38]
  GI50: > 100 µM (inactive)
[2]
  GI50: > 100 µM (inactive)
[3]
  GI50: > 100 µM (inactive)
[4]
  GI50: > 100 µM (inactive)
[5]
  GI50: > 100 µM (inactive)
[39]
  GI50: > 100 µM (inactive)
[40]
  GI50: > 100 µM (inactive)
[41]
  GI50: > 100 µM (inactive)
[42]
  GI50: > 100 µM
[6]
  GI50: > 100 µM (inactive)
[43]
  GI50: > 100 µM (inactive)
[7]
  GI50: > 100 µM (inactive)
[44]
  GI50: > 100 µM (inactive)
[45]
  GI50: > 100 µM (inactive)
[8]
  GI50: > 100 µM (inactive)
[9]
  GI50: > 100 µM (inactive)
[46]
  GI50: > 100 µM (inactive)
[47]
  GI50: > 100 µM (inactive)
[10]
  GI50: > 100 µM (inactive)
[48]
  GI50: > 100 µM (inactive)
[11]
  GI50: > 100 µM (inactive)
[12]
  GI50: > 100 µM (inactive)
[49]
  GI50: > 100 µM (inactive)
[50]
  GI50: > 100 µM (inactive)
[13]
  GI50: > 100 µM (inactive)
[51]
  GI50: > 100 µM (inactive)
[52]
  GI50: > 100 µM (inactive)
[14]
  GI50: > 100 µM (inactive)
[15]
  GI50: > 100 µM (inactive)
[53]
  GI50: 67.3 µM (inactive)
[54]
  GI50: > 100 µM (inactive)
[17]
  GI50: > 100 µM (inactive)
[18]
  GI50: > 100 µM (inactive)
[19]
  GI50: > 100 µM (inactive)
[20]
  GI50: > 100 µM (inactive)
[21]
  GI50: > 100 µM (inactive)
[55]
  GI50: > 100 µM (inactive)
[56]
  GI50: > 100 µM (inactive)
[22]
  GI50: > 100 µM (inactive)
[57]
  GI50: > 100 µM (inactive)
[58]
  GI50: > 100 µM (inactive)
[59]
  GI50: > 100 µM (inactive)
[23]
  GI50: > 100 µM (inactive)
[60]
  GI50: > 100 µM (inactive)
[61]
  GI50: > 100 µM (inactive)
[24]
  GI50: > 100 µM (inactive)
[25]
  GI50: > 100 µM (inactive)
[26]
  GI50: > 100 µM (inactive)
[62]
  GI50: > 100 µM (inactive)
[63]
  GI50: > 74.5 µM (inactive)
[64]
  GI50: > 100 µM (inactive)
[27]
  GI50: > 100 µM (inactive)
[65]
  GI50: > 100 µM (inactive)
[28]
  GI50: > 100 µM (inactive)
[29]
  GI50: > 100 µM (inactive)
[30]
  GI50: > 100 µM (inactive)
[66]
  GI50: > 100 µM (inactive)
[31]
  GI50: > 100 µM (inactive)
[32]
  GI50: > 100 µM (inactive)
[33]
  GI50: > 100 µM (inactive)
[67]
  GI50: > 100 µM (inactive)
[68]
  GI50: > 100 µM (inactive)
[34]
  GI50: > 100 µM (inactive)
[35]
  GI50: > 100 µM (inactive)

## C/C(CC(=O)Nc1cccc([N+](=O)[O-])c1)=N\NC(=O)CC#N
[36]
  GI50: > 100 µM (inactive)
[1]
  GI50: > 100 µM (inactive)
[38]
  GI50: > 100 µM (inactive)
[2]
  GI50: > 100 µM (inactive)
[4]
  GI50: > 100 µM (inactive)
[5]
  GI50: > 100 µM (inactive)
[39]
  GI50: > 100 µM (inactive)
[40]
  GI50: > 100 µM (inactive)
[41]
  GI50: > 100 µM (inactive)
[6]
  GI50: > 100 µM (inactive)
[43]
  GI50: > 100 µM (inactive)
[8]
  GI50: > 100 µM (inactive)
[9]
  GI50: > 100 µM (inactive)
[46]
  GI50: 99.1 µM (inactive)
[47]
  GI50: > 100 µM (inactive)
[10]
  GI50: > 100 µM (inactive)
[12]
  GI50: > 100 µM (inactive)
[50]
  GI50: > 100 µM (inactive)
[13]
  GI50: > 100 µM (inactive)
[51]
  GI50: > 100 µM (inactive)
[14]
  GI50: > 100 µM (inactive)
[15]
  GI50: > 100 µM (inactive)
[54]
  GI50: > 100 µM (inactive)
[16]
  GI50: > 100 µM (inactive)
[18]
  GI50: > 100 µM (inactive)
[19]
  GI50: > 100 µM (inactive)
[20]
  GI50: > 100 µM (inactive)
[56]
  GI50: > 100 µM (inactive)
[22]
  GI50: > 100 µM (inactive)
[59]
  GI50: > 100 µM (inactive)
[23]
  GI50: > 100 µM (inactive)
[60]
  GI50: > 100 µM (inactive)
[61]
  GI50: > 100 µM (inactive)
[24]
  GI50: > 100 µM (inactive)
[25]
  GI50: > 100 µM (inactive)
[26]
  GI50: > 100 µM (inactive)
[62]
  GI50: > 100 µM (inactive)
[63]
  GI50: > 100 µM (inactive)
[27]
  GI50: > 100 µM (inactive)
[28]
  GI50: > 100 µM (inactive)
[29]
  GI50: > 100 µM (inactive)
[30]
  GI50: > 100 µM (inactive)
[66]
  GI50: > 100 µM (inactive)
[31]
  GI50: > 100 µM (inactive)
[32]
  GI50: > 100 µM (inactive)
[33]
  GI50: > 100 µM (inactive)
[67]
  GI50: > 100 µM (inactive)
[34]
  GI50: > 100 µM (inactive)
